The source made the active and inactive calls. The rule behind the calls is not given here.
Tests used:
A549 [1] = experiment: Inhibition of TGF-beta1 induced epithelial-mesenchymal transition in human A549 cells assessed as reduction in SNAI1 level AT 5 AND 10 uM incubated for 48 hrs by qRT-PCR method; assay type: functional, cell-based
A549 [2] = experiment: Inhibition of TGF-beta1 induced epithelial-mesenchymal transition in human A549 cells assessed as reduction in phosphorylated SMAD2 level preincubated for 2 hrs followed by TGF-beta1 addition by Western blot method; assay type: functional, cell-based
A549 [3] = experiment: Cytotoxicity against human A549 cells assessed as cell viability at 1 to 25 uM after 48 hrs by WST-8 staining based CCK8 assay; details: a549, 48 h
A549 [4] = experiment: Inhibition of TGF-beta1 induced epithelial-mesenchymal transition in human A549 cells assessed as reduction in nuclear SMAD2 level preincubated for 2 hrs by Western blot method; assay type: functional, cell-based
A549 [5] = experiment: Inhibition of TGF-beta1 induced epithelial-mesenchymal transition in human A549 cells assessed as reduction in phosphorylated SMAD3 level preincubated for 2 hrs followed by TGF-beta1 addition by Western blot method; assay type: functional, cell-based
A549 [6] = experiment: Inhibition of TGF-beta1 induced epithelial-mesenchymal transition in human A549 cells assessed as reduction in nuclear SMAD3 level preincubated for 2 hrs by Western blot method; assay type: functional, cell-based
A549 [7] = experiment: Inhibition of TGF-beta1 induced epithelial-mesenchymal transition in human A549 cells assessed as reduction in ITGA5 level AT 5 AND 10 uM incubated for 48 hrs by qRT-PCR method; assay type: functional, cell-based
A549 [8] = experiment: Inhibition of TGF-beta1 induced epithelial-mesenchymal transition in human A549 cells assessed as reduction in nuclear phosphorylated SMAD3 level preincubated for 2 hrs by Western blot method; assay type: functional, cell-based
A549 [9] = experiment: Inhibition of TGF-beta1 induced epithelial-mesenchymal transition in human A549 cells assessed as morphological changes at 5 to 10 uM preincubated for 2 hrs followed by TGF-beta1 addition; assay type: functional, cell-based
A549 [10] = experiment: Inhibition of TGF-beta1 stimulated invasion in human A549 cells at 5 to 10 uM incubated for 48 hrs by matrigel invasion assay; assay type: functional, cell-based
A549 [11] = experiment: Inhibition of TGF-beta1-induced […] Snail promoter activity in human A549 cells at 5 to 10 uM preincubated for 2 hrs by dual luciferase reporter assay; assay type: functional, cell-based
A549 [12] = experiment: Inhibition of TGF-beta1-induced downregulation of epithelial marker E-cadherin expression in human A549 cells at 5 to 10 uM preincubated for 2 hrs by Western blot method; assay type: functional, cell-based
A549 [13] = experiment: Inhibition of TGF-beta1 induced epithelial-mesenchymal transition in human A549 cells assessed as reduction in CDH2 level AT 5 AND 10 uM incubated for 48 hrs by qRT-PCR method; assay type: functional, cell-based
A549 [14] = experiment: Inhibition of TGF-beta1 induced epithelial-mesenchymal transition in human A549 cells assessed as reduction in SNAI2 level AT 5 AND 10 uM incubated for 48 hrs by qRT-PCR method; assay type: functional, cell-based
A549 [15] = experiment: Inhibition of TGF-beta1 induced epithelial-mesenchymal transition in human A549 cells assessed as reduction in […] level AT 5 AND 10 uM incubated for 48 hrs by qRT-PCR method; assay type: functional, cell-based
A549 [16] = experiment: Inhibition of TGF-beta1-induced plasminogen activator inhibitor type 1 expression in human A549 cells assessed at 5 to 10 uM preincubated for 2 hrs by Western blot method; assay type: functional, cell-based
A549 [17] = experiment: Inhibition of TGF-beta1 induced cell migration in human A549 cells assessed as reduction in cell surface area incubated for 48 hrs by wound healing assay; assay type: functional, cell-based
A549 [18] = experiment: Cytotoxicity against human A549 cells assessed as cell viability at 50 to 100 uM after 48 hrs by WST-8 staining based CCK8 assay; details: a549, 48 h
A549 [19] = experiment: Inhibition of TGF-beta1 induced epithelial-mesenchymal transition in human A549 cells assessed as reduction in nuclear phosphorylated SMAD2 level preincubated for 2 hrs by Western blot method; assay type: functional, cell-based
A549 [20] = experiment: Inhibition of TGF-beta1 induced epithelial-mesenchymal transition in human A549 cells assessed as reduction in PAI1 level AT 5 AND 10 uM incubated for 48 hrs by qRT-PCR method; assay type: functional, cell-based
A549 [21] = experiment: Inhibition of TGF-beta1-induced upregulation of mesenchymal marker N-cadherin expression in human A549 cells at 5 to 10 uM preincubated for 2 hrs by Western blot method; assay type: functional, cell-based
A549 [22] = experiment: Inhibition of TGF-beta1 induced epithelial-mesenchymal transition in human A549 cells assessed as reduction in CALD1 level AT 5 AND 10 uM incubated for 48 hrs by qRT-PCR method; assay type: functional, cell-based
A549 [23] = experiment: Inhibition of TGF-beta1-induced upregulation of Snail protein expression in human A549 cells preincubated for 2 hrs by Western blot method; assay type: functional, cell-based
A549 [24] = experiment: Inhibition of TGF-beta1 induced epithelial-mesenchymal transition in human A549 cells assessed as reduction in COL5A2 level AT 5 AND 10 uM incubated for 48 hrs by qRT-PCR method; assay type: functional, cell-based
A549 [25] = experiment: Inhibition of TGF-beta1 induced epithelial-mesenchymal transition in human A549 cells assessed as reduction in SPARC level AT 5 AND 10 uM incubated for 48 hrs by qRT-PCR method; assay type: functional, cell-based
A549 [26] = experiment: Inhibition of TGF-beta1 response promoter transactivation mediated SMAD2 and SMAD3 phosphorylation in human A549 cells at 5 to 10 uM preincubated for 2 hrs by dual luciferase reporter assay; assay type: functional, cell-based
A549 [27] = experiment: Inhibition of TGF-beta1-induced matrix metalloproteinase-9 expression in human A549 cells at 5 to 10 uM preincubated for 2 hrs by Western blot method; assay type: functional, cell-based

## O=C(O[C@@H]1O[C@@H]2COC(=O)c3cc(O)c(O)c(O)c3-c3c(cc(O)c(O)c3O)C(=O)O[C@H]2[C@@H]2OC(=O)c3cc(O)c(O)c(O)c3-c3c(cc(O)c(O)c3O)C(=O)O[C@H]12)c1cc(O)c(O)c(Oc2c(O)c(O)c(O)c3c2C(=O)O[C@H]2[C@@H]4OC(=O)c5cc(O)c(O)c(O)c5-c5c(cc(O)c(O)c5O)C(=O)O[C@@H]4[C@@H](OC(=O)c4cc(O)c(O)c(O)c4)O[C@@H]2COC(=O)c2cc(O)c(O)c(O)c2-3)c1
A549 [1]
  inhibition: Active
A549 [2]
  inhibition: Dose-dependent effect
A549 [3]
  Activity: Non-toxic
A549 [4]
  inhibition: Dose-dependent effect
A549 [5]
  inhibition: Dose-dependent effect
A549 [6]
  inhibition: Dose-dependent effect
A549 [7]
  inhibition: Active
A549 [8]
  inhibition: Dose-dependent effect
A549 [9]
  inhibition: Active
A549 [10]
  inhibition: Active
A549 [11]
  inhibition: Active
A549 [12]
  inhibition: Active
A549 [13]
  inhibition: Active
A549 [14]
  inhibition: Active
A549 [15]
  inhibition: Active
A549 [16]
  inhibition: Dose-dependent effect
A549 [17]
  inhibition: Dose-dependent effect
A549 [18]
  Activity: Toxic
A549 [19]
  inhibition: Dose-dependent effect
A549 [20]
  inhibition: Active
A549 [21]
  inhibition: Active
A549 [22]
  inhibition: Active
A549 [23]
  inhibition: Dose-dependent effect
A549 [24]
  inhibition: Active
A549 [25]
  inhibition: Active
A549 [26]
  inhibition: Active
A549 [27]
  inhibition: Active
